# Like-named read-outs stand apart in the source and are kept apart here.
# Experiments:
# [1] = Solvent/water partition coefficient analysis (1-Octanol/water); type: physicochemical; settings: for logP: logarithm of the ratio of 1-Octanol to water, read-out: Partition coefficient [log Poct/wat]
# Method: Solvent/water partition coefficient analysis was conducted to determine the solvent/water partition coefficient. Various solvent were used in the experiments; yet, only the 1-Octanol/water partition coefficients of the active agents described herein above are summarized in Table 4. The 1-Octanol/water partition coefficient is the logarithm of the ratio of 1-Octanol to water and can be expressed as [log Poct/wat].
# [2] = Transmembrane penetration analysis; type: in vitro ADME, swine; settings: for True Value Concentration (completely penetrated active agent): 0.25 mL gel admixed with 5.5 mL saline; for Penetration Ratio: relative to true value
# From the text: The solution was admixed with the aquagel or O/W gel described hereinabove to afford an active agent-containing gel. In the comparative example, commercially available vaseline ointment was admixed with heptane to form vaseline gel, and the solution was also admixed with the vaseline gel.
# In the transmembrane penetration analysis, swine endometrium was used as the membrane. The swine endometrium of suitable size was disposed between an upper container and a lower container. The lower container was filled with physiologic saline and debubbled. […] The pipetted sample was analyzed with HPLC-PDA system.
# In addition, about 0.25 mL of each gel was admixed with about 5.5 mL of saline. The admixture was extracted, filtered through a filter film (0.45 μm) and then analyzes by HPLE-PDA. The results (referred to as the “true value” hereinafter) thus obtained were regarded as the amount of a completely penetrated active agent present in the lower container.
# [3] = Comparative Example D (vaseline gel)
# [4] = Working Example 3 (aqua gel), 1 hr
# [5] = Working Example 3 (aqua gel), 3 hr
# [6] = Working Example 3 (aqua gel), 5 hr
# [7] = Working Example 3 (aqua gel), 21 hr
# [8] = Working Example 3 (aqua gel), 24 hr
# [9] = Working Example 4 (O/W gel), 21 hr
# [10] = Working Example 4 (O/W gel), 24 hr
# [11] = Working Example 4 (O/W gel), 26 hr
smiles,measurement,setting,value
O=c1cc(-c2ccccc2)oc2cc(O)c(O)c(O)c12 [Baicalein],1-Octanol/H2O ratio,[1],Insoluble in water
"Nc1nc2c(ncn2COCCO)c(=O)[nH]1 [Acyclovir (ACY), Acyclovir]",logP,[1]; 1-octanol/water,-1.58
same,True Value Concentration (completely penetrated active agent),[2]; [3],0.1865 mg/mL
same,True Value Concentration (completely penetrated active agent),[2]; Working Example 3 (aqua gel),0.09979 mg/mL
same,Concentration in lower container,[2]; [4],5970 ng/mL
same,Concentration in lower container,[2]; [5],21420 ng/mL
same,Concentration in lower container,[2]; [6],29640 ng/mL
same,Concentration in lower container,[2]; [7],62890 ng/mL
same,Concentration in lower container,[2]; [8],58630 ng/mL
same,True Value Concentration (completely penetrated active agent),[2]; Working Example 4 (O/W gel),0.1375 mg/mL
same,Concentration in lower container,[2]; [9],2510 ng/mL
same,Concentration in lower container,[2]; [10],60500 ng/mL
same,Concentration in lower container,[2]; [11],83400 ng/mL
O=C(O)c1cc(O)c(O)c(O)c1 [Gallic acid],1-Octanol/H2O ratio,[1],1.859
same,logP,[1],0.27
"Clc1ccc(COC(Cn2ccnc2)c2ccc(Cl)cc2Cl)c(Cl)c1 (centres unmarked) [Miconazole nitrate(MIC), Miconazole nitrate]",True Value Concentration (completely penetrated active agent),[2]; Working Example 4 (O/W gel),0.1401 mg/mL
same,Concentration in lower container,[2]; [9],7060 ng/mL
same,Concentration in lower container,[2]; [10],60660 ng/mL
same,Concentration in lower container,[2]; [11],82720 ng/mL
"Cc1ncc([N+](=O)[O-])n1CCO [Metronidazole (MTZ), Metronidazole]",logP,[1]; 1-octanol/water,0.05
same,True Value Concentration (completely penetrated active agent),[2]; [3],0.1563 mg/mL
same,Concentration in lower container,"[2]; Comparative Example D (vaseline gel), 3 hr",460 ng/mL
same,Concentration in lower container,"[2]; Comparative Example D (vaseline gel), 5 hr",590 ng/mL
same,Concentration in lower container,"[2]; Comparative Example D (vaseline gel), 10.5 hr",960 ng/mL
same,Concentration in lower container,"[2]; Comparative Example D (vaseline gel), 24 hr",1740 ng/mL
same,Concentration in lower container,"[2]; Comparative Example D (vaseline gel), 26 hr",1430 ng/mL
same,True Value Concentration (completely penetrated active agent),[2]; Working Example 3 (aqua gel),0.09568 mg/mL
same,Concentration in lower container,[2]; [4],13200 ng/mL
same,Concentration in lower container,[2]; [5],31080 ng/mL
same,Concentration in lower container,[2]; [6],395900 ng/mL
same,Concentration in lower container,[2]; [7],635800 ng/mL
same,Concentration in lower container,[2]; [8],587100 ng/mL
same,Concentration in lower container,"[2]; Working Example 3 (aqua gel), 26 hr",595100 ng/mL
same,True Value Concentration (completely penetrated active agent),[2]; Working Example 4 (O/W gel),0.1433 mg/mL
same,Concentration in lower container,[2]; [9],6510 ng/mL
same,Concentration in lower container,[2]; [10],61670 ng/mL
same,Concentration in lower container,[2]; [11],81070 ng/mL
CC(C)[C@]12O[C@H]1[C@@H]1O[C@]13[C@]1(O[C@H]1C[C@H]1C4=C(CC[C@@]13C)C(=O)OC4)[C@@H]2O [Triptolide],1-Octanol/H2O ratio,[1],54.13
same,logP,[1],1.73
"C[C@@H]1[C@H](O)[C@@H](C)/C=C/C=C/CC/C=C/C=C/C=C/C=C/C(O[C@H]2O[C@H](C)[C@@H](O)[C@H](N)[C@@H]2O)CC2O[C@](O)(CC(O)C(O)CCC(O)CC(O)CC(O)CC(=O)O[C@H]1C)CC(O)C2C(=O)O (some centres unmarked) [Nystatin (NYS), Nystatin]",1-Octanol/H2O ratio,[1],1.98
same,Partition coefficient [log Poct/wat],[1],0.30
same,True Value Concentration (completely penetrated active agent),[2]; Working Example 4 (O/W gel),0.06448 mg/mL
same,Concentration in lower container,[2]; [9],1930 ng/mL
same,Penetration Ratio,[2]; [9],2.99%
same,Concentration in lower container,[2]; [10],20720 ng/mL
same,Penetration Ratio,[2]; [10],32.14%
same,Concentration in lower container,[2]; [11],30070 ng/mL
same,Penetration Ratio,[2]; [11],46.64%
O=c1ccc2ccc3occc3c2o1 [Isopsoralen],1-Octanol/H2O ratio,[1],306.9
same,logP,[1],2.49

# From patent US8501214B2, “Hydrophilic foam and pharmaceutical dosage form employing the same” (priority 2007, dated 2013)
